Test results published in paper PMC8321398, “The discovery of a novel series of compounds with single-dose efficacy against juvenile and adult Schistosoma species” (PLoS Neglected Tropical Diseases, 2021).
pEC50: −log10 of the molar value. Values after ≈ are worked out from the molar mass of the structure shown. Values joined by “and” are separate entries in the source; they are usually repeats but may differ in a detail not shown here. Equal values may be shown once. Read-outs that look alike come from different tables or passages of the source.

Assays:
[1] = Plasma protein binding in human plasma at 10 uM, equilibrium dialysis; format: in vitro ADME; settings: for recovery at 6 h, 10 µM: human, human plasma, pH 7.4
Procedure: (§1) Each experiment was performed in duplicate for the compound being tested. A working solution of compound was prepared from 10 μL of 10 mM solution in DMSO + 190 μL 40:60 MeCN:Water. A Total solution was prepared from 12 μL of working solution + 588 μL plasma (compound conc: 10 μM, DMSO: 0.1%, ACN:0.76%). In an equilibrium dialysis chamber, Total solution (200 μL) was added to the plasma chamber and PBS pH 7.4 (350 μL) was added to the buffer chamber. The chamber was then incubated at 37°C for 6 h with constant shaking at 400 rpm (Thermomixer comfort, Eppendorf). Aliquots were removed from both plasma and buffer chambers and the following test samples prepared: Blank: blank Plasma (20 μL) + blank buffer (60 μL), Buffer: blank plasma (20 μL) + test buffer (60 μL), Plasma: test plasma (20 μL) + blank buffer (60 μL), Total: total sample (20 μL) + blank buffer (60 μL). Ice-cold acetonitrile (160 μL), containing a suitable standard was added to all samples, they were shaken vigorously and centrifuged at 4,000 rpm for 20 min at 15°C. Supernatant (110 μL) from each sample was diluted with water (110 μL) and the sample analysed by LC-MS/MS.
(§2) % Free = 100 × (AREA in buffer × dilution factor)/(AREA in Plasma × dilution factor)
(§3) % Recovery = 100 ×[(Avg AREA in buffer × dilution factor) + (Avg AREA in Plasma × dilution factor)] / (Avg AREA in Total × dilution factor)

Adult S. mansoni = experiment: In vitro adult S. mansoni worm assay; format: cell-based; settings: Schistosoma mansoni, 120 h incubation
Excerpt: (§4) The Puerto Rican strain of S. mansoni was maintained in Biomphalaria glabrata and CD1 mice. Oncomelania hupensis (hupensis) infected with S. japonicum (Chinese strain) and Bulinus truncatus (truncatus) infected with Egyptian strain S. haematobium were obtained from BEI Resources, NIAID, NIH. Infection of mice for worm recovery was as previously described except that, whereas cercariae of S. mansoni and S. haematobium were obtained by shedding from infected snails under lights, cercariae of S. japonicum were obtained by gently crushing the snails. Furthermore, adult S. haematobium were recovered after 12 weeks following mouse infection.
(§5) In vitro efficacy was carried out as previously described. In brief, worms were recovered from infected mice by portal perfusion 3 weeks (for juveniles) or 6 weeks (for adults) post-infection using warm perfusion medium (Dulbecco’s Modified Eagle’s Medium [DMEM], 2mM L-glutamine, 100 Units/ml penicillin, 100μg/ml streptomycin, 20mM Hepes, 10 Units/ml heparin [Sigma, UK]). Worms were washed free of red blood cells using the perfusion medium, and finally suspended in complete medium (cDMEM: DMEM, 2mM L-glutamine, 100 Units/ml penicillin, 100μg/ml streptomycin, 10% FCS). The juvenile assays were carried out in 96-well plates, each well containing 6–8 worms in 200 μL cDMEM. The adult worm assay was in 24-well plates, each well containing 3 worm pairs in 1mL cDMEM. Both the juvenile and adult worm cultures were kept at 37° C, in an atmosphere of 5% CO2. Drug effects were determined on day 5 following drug treatment by assessing the viability of individual worms as described in [14].

[2] = Plasma protein binding in mouse plasma at 10 uM, equilibrium dialysis; format: in vitro ADME; settings: for recovery at 6 h, 10 µM: mouse, mouse plasma, pH 7.4
Procedure: as §1, §2, §3

Juvenile S. mansoni = experiment: In vitro juvenile (3 week old) S. mansoni worm assay; format: cell-based; settings: Schistosoma mansoni; for pEC50: Table 2, in vitro, 120 h incubation
Excerpt: as §4, §5

Kinetic solubility = format: physicochemical
Excerpt: Table 4 in vitro, physicochemical and in vivo properties of compounds pictured in Fig 10. | column: Measured physicochemical properties / Kinetic solubility, pH 7.4 (uM); Measured physicochemical properties / Kinetic solubility, FaSSIF (uM); Measured physicochemical properties / Kinetic solubility, FeSSIF (uM)

Mouse pharmacokinetics = format: in vivo; settings: for scaled plasma level, fold above the calculated whole blood IC50: 24 h; for Plasma conc @ 24 h after oral dose / bioavailability: mixture of 5 compounds; for AUC(0-inf) / Vd / bioavailability / half-life / concentration at 24 h: male, Swiss albino, plasma; for Vd: read-out: Vss; for bioavailability: 2.5 mg/kg oral, calculated values > 100% shown as 100; for half-life: iv; for concentration at 24 h: oral
[3] = Metabolic stability in human hepatocytes; format: in vitro ADME; settings: hepatocytes (suspension); for remaining at 0.5 h, 1 µM: pH 7.4, 30 min incubation, read-out: Human hepatocyte % remaining at 30 min; for remaining at 1.5 h, 1 µM: pH 7.4, 90 min incubation, read-out: Human hepatocyte % remaining at 90 min
Procedure: 100 μM compound stock solution was prepared from 5 μL of 4 mM stock in DMSO + 195 μL MeCN. Working solution (2 μM compound) was prepared using 10 μL of 100 μM stock + 490 μL buffer pH 7.4 (KHB supplemented with CaCl2, NaHCO3, HEPES, fructose, glycine; pH 7.4).
Working solution (25 μL, 2 μM) was added in duplicate to wells in a 0.5 mL per well, 96 well plate which was preincubated to reach 37°C. Hepatocyte suspension (25 μL) was added to each plate, and the plate incubated (37°C, 95% relative humidity with 5% CO2 supply) under gentle mixing (Thermomixer @300 rpm). After designated time periods, ice-cold MeCN (250 μL) was added with a suitable standard. For T = 0 min, ice-cold MeCN (250 μL) with suitable standard was added to the working solution (2 μM) and hepatocyte suspension (25 μL) added. The plates for each time point were shaken, sonicated for 5 mins and kept at 4°C until the final plate was processed. The plates were centrifuged at 4,000 rpm for 20 min, supernatant (110 μL) was mixed with water (110 μL) and the samples analysed using LC-MS/MS.

HepG2 cells = experiment: Cytotoxicity, HepG2 cells with MTT; format: cell-based, human; settings: Table 2; hepG2 cell line, 72 h incubation
Procedure: Activity against mammalian cells was determined using either of two standard assays. The first of these used MRC-5 cells with Alamar blue staining as previously described. The second used HepG2 cells monitored using 3-(4,5-dimethylthiazol-2-yl)-2,5-diphenyltetrazolium bromide (MTT) as previously described.

[4] = Table 2, in vitro, read-out: Adult S. mansoni EC50
[5] = Table 3, S. mansoni, read-out: Sm adult EC50
[6] = pH 7.4, read-out: Kinetic solubility, pH 7.4
[7] = 0.5 mg/kg iv, in a mixture of 5 compounds
[8] = 0.5 mg/kg, 0.5 mg/kg iv, in a mixture of 5 compounds, sampled over 24 h
[9] = FaSSIF, pH 6.5, read-out: Kinetic solubility, FaSSIF
[10] = FeSSIF, pH 5, read-out: Kinetic solubility, FeSSIF
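For Clobs in this document: three mice per experiment, dosed in 10% DMSO with 50 mM Na2HPO4 buffer plus Tween-80, plasma levels quantified by LC-MS against a calibration line prepared in blank matrix.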
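For Plasma conc @ 24 h after oral dose in this document: three mice per experiment, dosed in 10% DMSO with 50 mM Na2HPO4 buffer plus Tween-80, plasma levels quantified by LC-MS against a calibration line prepared in blank matrix.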
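For Vss in this document: three mice per experiment, dosed in 10% DMSO with 50 mM Na2HPO4 buffer plus Tween-80, plasma levels quantified by LC-MS against a calibration line prepared in blank matrix.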
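For scaled plasma level, fold above the calculated whole blood IC50 in this document: three mice per experiment, dosed in 10% DMSO with 50 mM Na2HPO4 buffer plus Tween-80, plasma levels quantified by LC-MS against a calibration line prepared in blank matrix.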

Structure (SMILES)	Human plasma protein %binding [1]	recovery at 6 h, 10 µM [1]	pEC50 (Adult S. mansoni; [4])	pEC50 (Adult S. mansoni; [5])	Mouse plasma protein %binding [2]	recovery at 6 h, 10 µM [2]	pEC50 (Juvenile S. mansoni)	solubility kinetic at 24 h (Kinetic solubility; [6])	AUC(0-inf) (Mouse pharmacokinetics; [7])	Vd (Mouse pharmacokinetics; [7])	bioavailability (Mouse pharmacokinetics)	half-life (Mouse pharmacokinetics; [8])	remaining at 0.5 h, 1 µM [3]	Cytotox TC50 (HepG2 cells)	Clobs (Mouse pharmacokinetics; [7])	remaining at 1.5 h, 1 µM [3]	solubility kinetic at 24 h (Kinetic solubility; [9])	solubility kinetic at 24 h (Kinetic solubility; [10])	further results
CC(C)c1nc2cnc(-c3ccc(F)c(C(F)(F)F)c3)cn2c1-c1c(F)cc(O)cc1F [LSHTM-3520]	99.9895%	97.1%	7.34	7.34	99.97%	91.5%	7.57	12.7 µM (≈ 5.73 µg/mL)	500 ng·h/mL	7.1 L/kg	50%	7 h	52%	7,130 nM					Clobs (Mouse pharmacokinetics; 0.5 mg/kg iv, in a mixture of 5 compounds, 0.5 mg/kg): 18.3 mL/min/kg and 18 mL/min/kg; scaled plasma level, fold above the calculated whole blood IC50 (Mouse pharmacokinetics; 50 mg/mL (so in the source)): 1.3 fold; scaled plasma level, fold above the calculated whole blood IC50 (Mouse pharmacokinetics; 200 mg/mL (so in the source)): 5.3 fold; Plasma conc @ 24 h after oral dose (Mouse pharmacokinetics; […]): 8.1 ng/mL; concentration at 24 h (Mouse pharmacokinetics; 50 mg/mL, scaled from […] to 50 mg/mL (so in the source), linear kinetics assumed, read-out: plasma level after 24 h scaled from the low-dose oral PK experiment): 160 ng/mL; concentration at 24 h (Mouse pharmacokinetics; 200 mg/mL, scaled from […] to 200 mg/mL (so in the source), linear kinetics assumed, read-out: plasma level after 24 h scaled from the low-dose oral PK experiment): 640 ng/mL
CC(C)c1nc2cnc(-c3ccc(F)c(C(F)(F)F)c3)cn2c1-c1ccc2[nH]ncc2c1F [LSHTM-3604]	99.9973%	92.4%	7.50		99.9858%	94.5%	7.48	0.834 µM (≈ 0.381 µg/mL)	1900 ng·h/mL	3.4 L/kg	60%	10.5 h	99%	12,000 nM	4.33 mL/min/kg	98%			IC50 (Juvenile S. mansoni; 10 fold the in vitro value (assay run at 10% of whole blood protein), read-out: calculated whole blood IC50): 0.152 µg/mL (≈ 0.332 µM); solubility kinetic (Kinetic solubility; FaSSIF, read-out: Kinetic solubility, FaSSIF): 200 µM (≈ 91.5 µg/mL); solubility kinetic (Kinetic solubility; FeSSIF, read-out: Kinetic solubility, FeSSIF): 200 µM (≈ 91.5 µg/mL); scaled plasma level, fold above the calculated whole blood IC50 (Mouse pharmacokinetics; efficacy dose (dose not given)): 9.4 fold; concentration at 24 h (Mouse pharmacokinetics; plasma level after 24 h scaled from […] dose, scaled to the efficacy dose (dose not given), read-out: plasma level after 24 h scaled from 2.5 mg/kg dose): 1430 ng/mL
Fc1c(-c2c(C(F)(F)F)nc3cnc(-c4cccc(C(F)(F)C(F)(F)F)c4)cn23)ccc2[nH]ncc12 [LSHTM-3608]	100%	97.8%	7.82	7.82	99.9195%	80.8%	7.68	0.704 µM (≈ 0.363 µg/mL)	6200 ng·h/mL	4 L/kg	100%	37.1 h		10,900 nM	1.5 mL/min/kg	98%	200 µM (≈ 103 µg/mL)	196 µM (≈ 101 µg/mL)	
Fc1ccc(-c2cn3c(-c4ccc5[nH]ncc5c4F)c(C(F)(F)F)nc3cn2)cc1C(F)(F)F [LSHTM-3642, 3-(4-fluoro-1H-indazol-5-yl)-6-(4-fluoro-3-(trifluoromethyl)phenyl)-2-(trifluoromethyl)imidazo[1,2-a]pyrazine]	99.9895%	97.4%	7.57	7.56	99.9915%	92.1%	7.32	0.854 µM (≈ 0.413 µg/mL)	5500 ng·h/mL	8.7 L/kg	83%			16,600 nM	2.17 mL/min/kg	105%	196 µM (≈ 94.7 µg/mL)	197 µM (≈ 95.2 µg/mL)	Plasma conc @ 24 h after oral dose (Mouse pharmacokinetics): 227 ng/mL
Fc1ccc(-c2cn3c(-c4ccc5[nH]ncc5c4F)c(C(F)(F)F)nc3cn2)cc1C(F)(F)C(F)(F)F [LSHTM-3645]	100%	85.8%	8.01	8.01	100%	96.9%	7.97	0.264 µM (≈ 0.141 µg/mL)	2400 ng·h/mL	6.4 L/kg	100%	23.4 h		11,700 nM	3.5 mL/min/kg	105%	199 µM (≈ 106 µg/mL)	200 µM (≈ 107 µg/mL)	
CC(C)c1cc(-c2cn3c(-c4ccc5[nH]ncc5c4F)c(C4CC4)nc3cn2)ccc1F [LSHTM-3686]	99.998%	62.7%	8.27	8.27	99.997%	76.1%	8.39	0.885 µM (≈ 0.38 µg/mL)	500 ng·h/mL	3.9 L/kg	100%	6 h		15,800 nM	15.7 mL/min/kg	75%	33.9 µM (≈ 14.6 µg/mL)	43.8 µM (≈ 18.8 µg/mL)	half life (Mouse pharmacokinetics; 0.5 mg/kg iv, in a mixture of 5 compounds, sampled over 24 h, 0.5 mg/kg): 6.2 h
